# Results taken from patent publication US20120083476A1, “HETEROARYL-SUBSTITUTED SPIROCYCLIC DIAMINE UREA MODULATORS OF FATTY ACID AMIDE HYDROLASE” (Janssen Pharmaceutica NV, priority 2009, published 2012).
# Where a name gives a salt, the structure may show the parent alone.
# How the values were obtained:
# [1] = molecular target: T1, Rat FAAH (Rattus norvegicus, UniProt P97612); assay: Assay Method 2: rat FAAH assay (3H-anandamide hydrolysis in cell homogenate); type: biochemical; conditions: read-out: Assay 2 IC50
# T1 construct: expressed in transfected cells; host or cells: SK-N-MC cells stably transfected with rat FAAH cDNA (G418 selection)
# T1 sequence (P97612 1-579): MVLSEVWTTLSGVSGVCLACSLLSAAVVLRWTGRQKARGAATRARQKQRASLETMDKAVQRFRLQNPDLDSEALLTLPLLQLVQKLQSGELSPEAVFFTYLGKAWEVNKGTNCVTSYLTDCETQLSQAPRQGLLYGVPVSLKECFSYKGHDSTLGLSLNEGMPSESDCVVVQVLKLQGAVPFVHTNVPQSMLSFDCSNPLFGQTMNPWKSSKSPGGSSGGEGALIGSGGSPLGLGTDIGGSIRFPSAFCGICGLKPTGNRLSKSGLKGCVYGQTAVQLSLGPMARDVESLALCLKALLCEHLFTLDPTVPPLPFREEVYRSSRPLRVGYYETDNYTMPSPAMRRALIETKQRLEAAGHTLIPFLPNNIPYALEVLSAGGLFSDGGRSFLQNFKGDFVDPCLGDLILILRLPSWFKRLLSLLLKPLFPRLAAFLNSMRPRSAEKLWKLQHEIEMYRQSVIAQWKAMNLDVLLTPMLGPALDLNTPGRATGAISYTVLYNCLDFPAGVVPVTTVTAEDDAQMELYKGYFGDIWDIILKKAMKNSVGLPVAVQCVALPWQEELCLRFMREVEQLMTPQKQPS
# Procedure: A. Transfection of Cells with Rat FAAH A 10-cm tissue culture dish with a confluent monolayer of SK-N-MC cells was split 2 days (d) prior to transfection. Using sterile technique, the media was removed and the cells were detached from the dish by the addition of trypsin. One fifth of the cells were then placed onto a new 10-cm dish. Cells were grown in a 37° C. incubator with 5% CO2 in Minimal Essential Media Eagle with 10% Fetal Bovine Serum. After 2 d, cells were approximately 80% confluent. These cells were removed from the dish with trypsin and pelleted in a clinical centrifuge. The pellet was re-suspended in 400 μL complete media and transferred to an electroporation cuvette with a 0.4 cm gap between the electrodes. Supercoiled rat FAAH cDNA (1 μg) was added to the cells and mixed. The voltage for the electroporation was set at 0.25 kV, and the capacitance was set at 960 μF. After electroporation, the cells were diluted into complete media (10 mL) and plated onto four 10-cm dishes. Because of the variability in the efficiency of electroporation, four different concentrations of cells were plated. The ratios used were 1:20, 1:10, and 1:5, with the remainder of the cells being added to the fourth dish. The cells were allowed to recover for 24 h before adding the selection media (complete media with 600 μg/mL G418). After 10 d, dishes were analyzed for surviving colonies of cells. Dishes with well-isolated colonies were used. Cells from individual colonies were isolated and tested. […] B. FAAH Assay T84 frozen cell pellets or transfected SK-N-MC cells (contents of 1×15 cm culture dishes) were homogenized in 50 mL of FAAH assay buffer (125 mM Tris, 1 mM EDTA, 0.2% Glycerol, 0.02% Triton X-100, 0.4 mM Hepes, pH 9). […] The reaction mixture was incubated at rt for 1 h. During the incubation, 96-well Multiscreen filter plates (catalog number MAFCNOB50; Millipore, Bedford, Mass., USA) were loaded with 25 of activated charcoal (Multiscreen column loader, catalog number MACL09625, Millipore) and washed once with 100 μL of MeOH. Also during the incubation, 96-well DYNEX MicroLite plates (catalog number NL510410) were loaded with 100 μL of MicroScint40 (catalog number 6013641, Packard Bioscience, Meriden, Conn., USA). After the 1 h incubation, 60 μL of the reaction mixture were transferred to the charcoal plates, which were then assembled on top of the DYNEX plates using Centrifuge Alignment Frames (catalog number MACF09604, Millipore). The unbound labeled ethanolamine was centrifuged through to the bottom plate (5 min at 2000 rpm), which was preloaded with the scintillant, as described above. The plates were sealed and left at rt for 1 h before counting on a Hewlett Packard TopCount. Results for compounds tested in these assays are summarized in Table 1, as an average of results obtained. Compounds were tested in free base or trifluoroacetic acid salt forms. Where activity is shown as greater than (>) a particular value, the value is the solubility limit of the compound in the assay medium or the highest concentration tested in the assay.
# [2] = molecular target: T2, FAAH (Homo sapiens, UniProt O00519); assay: Assay Method 1: human FAAH assay (3H-anandamide hydrolysis in cell homogenate); type: biochemical; set-up: expressed in transfected cells; host or cells: SK-N-MC cells stably transfected with human FAAH cDNA (G418 selection); alternatively T84 cell pellets; conditions: read-out: Assay 1 IC50
# T2 sequence (O00519 1-579): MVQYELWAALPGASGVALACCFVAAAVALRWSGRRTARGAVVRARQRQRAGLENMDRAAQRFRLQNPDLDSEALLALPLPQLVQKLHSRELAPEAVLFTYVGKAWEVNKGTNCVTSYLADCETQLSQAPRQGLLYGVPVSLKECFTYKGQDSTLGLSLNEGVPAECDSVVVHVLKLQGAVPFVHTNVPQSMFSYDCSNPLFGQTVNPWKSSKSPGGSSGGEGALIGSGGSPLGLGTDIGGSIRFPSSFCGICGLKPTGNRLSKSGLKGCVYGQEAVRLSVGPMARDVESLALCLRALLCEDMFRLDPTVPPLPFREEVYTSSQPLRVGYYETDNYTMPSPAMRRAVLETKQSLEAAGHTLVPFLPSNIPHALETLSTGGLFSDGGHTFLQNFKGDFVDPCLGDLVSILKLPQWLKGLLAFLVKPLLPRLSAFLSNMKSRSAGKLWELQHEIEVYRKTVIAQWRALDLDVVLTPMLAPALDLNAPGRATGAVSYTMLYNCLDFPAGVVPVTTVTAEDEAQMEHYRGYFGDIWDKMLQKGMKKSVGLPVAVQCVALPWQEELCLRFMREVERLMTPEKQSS
# Procedure: A. Transfection of Cells with Human FAAH
# A 10-cm tissue culture dish with a confluent monolayer of SK-N-MC cells was split 2 days (d) prior to transfection. Using sterile technique, the media was removed and the cells were detached from the dish by the addition of trypsin. One fifth of the cells were then placed onto a new 10-cm dish. Cells were grown in a 37° C. incubator with 5% CO2 in Minimal Essential Media Eagle with 10% Fetal Bovine Serum. After 2 d, cells were approximately 80% confluent. These cells were removed from the dish with trypsin and pelleted in a clinical centrifuge. The pellet was re-suspended in 400 μL complete media and transferred to an electroporation cuvette with a 0.4 cm gap between the electrodes. Supercoiled human FAAH cDNA (1 μg) was added to the cells and mixed. The voltage for the electroporation was set at 0.25 kV, and the capacitance was set at 960 μF. After electroporation, the cells were diluted into complete media (10 mL) and plated onto four 10-cm dishes. Because of the variability in the efficiency of electroporation, four different concentrations of cells were plated. […] The cells were allowed to recover for 24 h before adding the selection media (complete media with 600 μg/mL G418). After 10 d, dishes were analyzed for surviving colonies of cells. Dishes with well-isolated colonies were used. Cells from individual colonies were isolated and tested.
# T84 frozen cell pellets or transfected SK-N-MC cells (contents of 1×15 cm culture dishes) were homogenized in 50 mL of FAAH assay buffer (125 mM Tris, 1 mM EDTA, 0.2% Glycerol, 0.02% Triton X-100, 0.4 mM Hepes, pH 9). The assay mixture consisted of 50 μL of the cell homogenate, 10 μL of the test compound, and 40 μL of anandamide [1-^3H-ethanolamine] (^3H-AEA, Perkin-Elmer, 10.3 Ci/mmol), which was added last, for a final tracer concentration of 80 nM. The reaction mixture was incubated at rt for 1 h. During the incubation, 96-well Multiscreen filter plates (catalog number MAFCNOB50; Millipore, Bedford, Mass., USA) were loaded with 25 of activated charcoal (Multiscreen column loader, catalog number MACL09625, Millipore) and washed once with 100 μL of MeOH. Also during the incubation, 96-well DYNEX MicroLite plates (catalog number NL510410) were loaded with 100 μL of MicroScint40 (catalog number 6013641, Packard Bioscience, Meriden, Conn., USA). After the 1 h incubation, 60 μL of the reaction mixture were transferred to the charcoal plates, which were then assembled on top of the DYNEX plates using Centrifuge Alignment Frames (catalog number MACF09604, Millipore). The unbound labeled ethanolamine was centrifuged through to the bottom plate (5 min at 2000 rpm), which was preloaded with the scintillant, as described above. The plates were sealed and left at rt for 1 h before counting on a Hewlett Packard TopCount.
# Compounds were tested in free base or trifluoroacetic acid salt forms.
SMILES,IC50 [1] [µM],IC50 [2] [µM]
"O=C(Nc1ccc(-n2nccn2)nc1)N1CCC2(CCN(Cc3cccc(Oc4ccc(Cl)cc4)c3)C2)CC1 [Example 1, 2-[3-(4-Chloro-phenoxy)-benzyl]-2,8-diaza-spiro[4.5]decane-8-carboxylic acid (6-[1,2,3]triazol-2-yl-pyridin-3-yl)-amide]",0.06,0.02
"O=C(Nc1cccnc1)N1CCC2(CCCN2Cc2cccc(Oc3ccc(Cl)cc3)c2)C1 (stereo not drawn) [Example 7, 1-[3-(4-Chloro-phenoxy)-benzyl]-1,7-diaza-spiro[4.4]nonane-7-carboxylic acid pyridin-3-ylamide]",–,9
"O=C(Nc1cccnc1)N1CCCC2(CN(Cc3cccc(Oc4ccc(Cl)cc4)c3)C2)C1 [Example 26, 2-(3-(4-chlorophenoxy)benzyl)-N-(pyridin-3-yl)-2,6-diazaspiro[3.5]nonane-6-carboxamide]",6,–
"O=C(Nc1cnc2ccccc2c1)N1CCCC2(CN(Cc3cccc(Oc4ccc(Cl)cc4)c3)C2)C1 [Example 32, 2-(3-(4-chlorophenoxy)benzyl)-N-(quinolin-3-yl)-2,6-diazaspiro[3.5]nonane-6-carboxamide]",0.01,–
"O=C(Nc1ccc(-n2cnnc2)nc1)N1CC2(CCN(Cc3cccc(Oc4ccc(Cl)cc4)c3)CC2)C1 [Example 47, 7-[3-(4-Chloro-phenoxy)-benzyl]-2,7-diaza-spiro[3.5]nonane-2-carboxylic acid (6-[1,2,4]triazol-4-yl-pyridin-3-yl)-amide, trifluoroacetic acid salt]",> 10,–
"O=C(Nc1nnn[nH]1)N1CC2(CCN(Cc3cccc(Oc4ccc(Cl)cc4)c3)CC2)C1 [Example 51, 7-[3-(4-Chloro-phenoxy)-benzyl]-2,7-diaza-spiro[3.5]nonane-2-carboxylic acid (1H-tetrazol-5-yl)-amide, trifluoroacetic acid salt]",0.2,–
"O=C(Nc1cnc(-c2ccccc2)nc1)N1CC2(CCN(Cc3cccc(Oc4ccc(Cl)cc4)c3)CC2)C1 [Example 83, 7-(3-(4-chlorophenoxy)benzyl)-N-(2-phenylpyrimidin-5-yl)-2,7-diazaspiro[3.5]nonane-2-carboxamide, trifluoroacetic acid salt]",0.02,–
"O=C(Nc1cccnc1)N1CC2(CCN(Cc3ccc4c(c3)OC(F)(F)O4)CC2)C1 [Example 87, 7-(2,2-Difluoro-benzo[1,3]-dioxol-5-ylmethyl)-2,7-diaza-spiro[3.5]nonane-2-carboxylic acid pyridin-3-ylamide]",> 10,–
"O=C(Nc1cnc2[nH]ccc2c1)N1CC2(CCN(Cc3ccc4c(c3)OC(F)(F)O4)CC2)C1 [Example 89, 7-(2,2-Difluoro-benzo[1,3]dioxol-5-ylmethyl)-2,7-diaza-spiro[3.5]nonane-2-carboxylic acid (1H-pyrrolo[2,3-b]pyridin-5-yl)-amide]",–,0.5
"O=C(Nc1cccnc1)N1CC2(CCN(Cc3ccccc3Cl)CC2)C1 [Example 98, 7-(2-Chloro-benzyl)-2,7-diaza-spiro[3.5]nonane-2-carboxylic acid pyridin-3-ylamide]",> 10,–
"O=C(Nc1cccnc1)N1CC2(CCN(Cc3cccc(Cl)c3)CC2)C1 [Example 99, 7-(3-Chloro-benzyl)-2,7-diaza-spiro[3.5]nonane-2-carboxylic acid pyridin-3-ylamide]",> 10,–
"O=C(Nc1cccnc1)N1CC2(CCN(Cc3ccc(C(F)(F)F)cc3)CC2)C1 [Example 102, N-(pyridin-3-yl)-7-(4-(trifluoromethyl)benzyl)-2,7-diazaspiro[3.5]nonane-2-carboxamide]",> 10,–
"O=C(Nc1cccnc1)N1CC2(CCN(Cc3ccc(Cl)c(C(F)(F)F)c3)CC2)C1 [Example 109, 7-(4-chloro-3-(trifluoromethyl)benzyl)-N-(pyridin-3-yl)-2,7-diazaspiro[3.5]nonane-2-carboxamide]",> 10,–
"O=C(Nc1cccnc1)N1CC2(CCN(Cc3cccc(Oc4ccc(OCC(F)(F)F)cc4)c3)CC2)C1 [Example 128, 7-{3-[4-(2,2,2-Trifluoro-ethoxy)-phenoxy]-benzyl}-2,7-diaza-spiro[3.5]nonane-2-carboxylic acid pyridin-3-ylamide]",–,8
